What was measured:
[1] = humans; cited from earlier work
serum gastrin = settings: humans, on administration of racemic lansoprazole; cited from earlier work
gastric acid secretion = settings: humans; cited from earlier work
[2] = tested on: hepatic drug metabolizing enzyme systems; settings: compared with omeprazole; cited from earlier work
[3] = human, in vivo
Source text: Utilizing the optically pure or substantially optically pure isomer of (+) lansoprazole results in enhanced efficacy, diminished adverse effects, and accordingly, an improved therapeutic index. […] It is therefore, more desirable to use the (+) isomer of lansoprazole than to administer the racemic mixture because predictability of an effective and safe dose for an individual patient is greater.

canine parietal cells = settings: isolated canine parietal cells; (+) versus (−) enantiomer; Nagaya et al.; cited from earlier work

Cc1c(OCC(F)(F)F)ccnc1C[S+]([O-])c1nc2ccccc2[nH]1 (racemic) [racemic lansoprazole, 2-[3-methyl-4-(2,2,2-trifluoroethoxy)pyrid-2-yl]methylsulfinyl-benzimidazole]
serum half-life [1]: about 1.5 hours | fasting serum gastrin levels (serum gastrin): significantly elevated | duration of the acid inhibitory effect (gastric acid secretion): about 24 hours | effects on hepatic drug metabolizing enzyme systems [2]: comparable to omeprazole

Cc1c(OCC(F)(F)F)ccnc1C[S@@+]([O-])c1nc2ccccc2[nH]1 (single isomer, unassigned) [R(+) lansoprazole, (+) isomer of 2-[3-methyl-4-(2,2,2-trifluoroethoxy)pyrid-2-yl]methylsulfinyl-benzimidazole]
half-life [3]: longer half-life | variation in the patient population between good metabolizers and poor metabolizers [3]: less variation | effects on acid formation stimulated by db-cAMP (canine parietal cells): almost identical

Cc1c(OCC(F)(F)F)ccnc1C[S+]([O-])c1nc2ccccc2[nH]1 (stereo not drawn) [S(−) lansoprazole]
effects on acid formation stimulated by db-cAMP (canine parietal cells): almost identical
